“And” between values parts separate entries of the source, which are not always exact repeats. Equal entries are not always repeated. Structures can show the parent of a compound that is named as a salt.
Legend:
Ent. cloacae P99 = experiment: in-vitro MIC of amoxycillin alone and with Example 1; format: cell-based; conditions: alone; β-lactamase 1 (high constitutive expression)
JT4 = experiment: as above; format: cell-based, P. coli; conditions: alone; β-lactamase 2b (high expression)
E. coli P91 = experiment: as above; format: cell-based; conditions: alone; β-lactamase 2d
P. vulgaris C = experiment: as above; format: cell-based; conditions: alone; β-lactamase 2e
E. coli JT39 = experiment: as above; format: cell-based; conditions: alone; β-lactamase 2b (low expression)
P. mirabilis C889 = experiment: as above; format: cell-based; conditions: alone; β-lactamase 2c
Ent. cloacae N1 = experiment: as above; format: cell-based; conditions: alone; β-lactamase 1 (inducible expression)
S. aureus Russell = experiment: as above; format: cell-based; conditions: alone; β-lactamase 2a
[1] = tested on: TEM-3 producing strain of K.pneumoniae; experiment: MIC of cefotaxime, titration with Example 1; format: cell-based; conditions: K.pneumoniae TEM-3
Method: (§1) The in-vitro synergistic activity of the compound of Example 1 above (i.e sodium (5R)-6-[(Z)-(2,3-dihydroimidazo[2,1-b]thiazol- 6-yl)methylene]penem-3-carboxylate) with cefotaxime was investigated.
The MIC (inimum inhibitory concentration) of cefotaxime against one TEM-3 producing strain of K.pneumoniae was measured.

[2] = tested on: Klebsiella pneumoniae (520), producing TEM-3 β-lactamase; experiment: mouse intraperitoneal infection, cefotaxime CD50; format: in vivo, mice
Method: (§2) In these studies, mice were infected intraperitoneally with a lethal challenge inoculum of strains of either Klebsiella pneumoniae (520), producing extended-spectrum TEM type ββ-lactamase, (TEM-3) or Enterobacter cloacae (4593) producing high levels of derepressed class (AmpC) ββ-lactamase. Virulence of all strains was enhanced by suspending the bacteria in hog gastric mucin prior to infection.
(§3) Mice were dosed subcutaneously at 1 and 5 hours post-infection, with either cefotaxime alone or coadministered with the ββ-lactamase inhibitor at 1 mg/kg or 5 mg/kg.
(§4) 1 CD50 (dose protecting 50% of animals from lethal infection) calculated from groups of 5 animals per test, subjected to a range of 4 dose levels (4-fold serial dilutions)
(§5) Efficacy was assessed by the number of animal surviving at 4 days after infection, and the total dose that protected 50% of treated animals (CD50 value) was calculated.

[3] = tested on: Enterobacter cloacae (4593) producing high levels of derepressed class (AmpC) β-lactamase; experiment: mouse intraperitoneal infection, cefotaxime CD50; format: in vivo, mice
Method: as §2, §3, §4, §5

E. cloacae = experiment: in vitro selection of ceftazidime-resistant cells in a growing population; format: cell-based
[4] = tested on: Escherichia coli (E96), producing TEM-1 β-lactamase; experiment: mouse intraperitoneal infection, amoxycillin CD50; format: in vivo, mice; conditions: coadministration with Example 1 versus amoxycillin alone
Method: In these studies, mice were infected intrapenitoneally with a lethal challenge inoculum of strains of Escherichia coli (E96), producing TEM-1 ββ-lactamase, for tests to protect amoxycillin. Virulence of all strains was enhanced by suspending the bacteria in hog gastric mucin prior to infection.
Mice were dosed subcutaneously at 1 and 5 hours post-infection, with either amoxycillin alone or coadministered with the ββ-lactamase inhibitor at 2 mg/kg.
as §5

B. fragilis [5] = experiment: in-vitro synergy with cefotaxime; format: cell-based; conditions: 1 μg/ml Example 1
Source text: as §1

[6] = tested on: strains of Enterobacteriaceae producing extended spectrum β-lactamases; experiment: in-vitro synergy with cefotaxime; format: cell-based; conditions: 1 μg/ml Example 1
Source text: as §1

B. fragilis [7] = experiment: in-vitro MIC of ceftazidime alone and with Example 1; format: cell-based
Source text: (§6) The in-vitro synergistic activity of the compound of Example 1 above (i.e sodium (5R)-6-[(Z)-(2,3-dihydroimidazo[2,1-b]thiazol-6-yl) methylene]penem-3-carboxylate) with ceftazidime was investigated.

[8] = tested on: strain of Enterobacter producing extended spectrum β-lactamase enzymes; experiment: as above; format: cell-based; conditions: Enterobacter ESBL strain
Source text: as §6

[9] = tested on: strain of Ent.cloacae producing high levels of Class 1 β-lactamases constitutively; experiment: MIC of cefotaxime, titration with Example 1; format: cell-based; conditions: in presence of 1 μg/ml Example 1; Ent.cloacae high Class 1
serum half life = conditions: in vivo
[10] = in presence of 1 μg/ml Example 1

With `CC1(C)S[C@@H]2[C@H](NC(=O)[C@H](N)c3ccc(O)cc3)C(=O)N2[C@H]1C(=O)O` [Amoxycillin, 6-[D(−)-α-amino-p-hydroxypheny-acetamido]penicillanic acid] the Amoxycillin MIC (Ent. cloacae P99) was over 256 µg/mL, the Amoxycillin MIC (JT4) was over 256 µg/mL and the Amoxycillin MIC (E. coli P91) was over 256 µg/mL. The Amoxycillin MIC (P. vulgaris C) was 32 µg/mL, the Amoxycillin MIC (E. coli JT39) was over 256 µg/mL and the Amoxycillin MIC (P. mirabilis C889) was over 256 µg/mL. For the same compound, the Amoxycillin MIC (Ent. cloacae N1) was over 256 µg/mL and the Amoxycillin MIC (S. aureus Russell) was 128 µg/mL.
With `CO/N=C(\C(=O)N[C@@H]1C(=O)N2C(C(=O)O)=C(COC(C)=O)CS[C@H]12)c1csc(N)n1` [Cefotaxime] the MIC ([1]; Klebsiella pneumoniae, in the absence of Example 1) was 64 µg/mL, the “Cefotaxime CD50” value ([2]; cefotaxime alone, s.c. at 1 and 5 h post-infection, K. pneumoniae) was 54 mg/kg and 42 mg/kg and the “Cefotaxime CD50” value ([3]; cefotaxime alone, s.c. at 1 and 5 h post-infection, E. cloacae 4593) was 240 mg/kg and 400 mg/kg.
With `O=C([O-])C1=CS[C@@H]2/C(=C\c3cn4c(n3)SCC4)C(=O)N12.[Na+]` [Example 1, Sodium (5R)-6-[(Z)-(2,3-Dihydroimidazo[2,1-b]thiazol-6-yl) Methylene]-penem-3-carboxylate] the “rate of emergence of resistant isolates” value (E. cloacae; ceftazidime at 0.5 MIC plus Example 1) was “reduced the rate of emergence of resistant isolates dramatically”, the “final level of resistance” value (E. cloacae; combination of ceftazidime and Example 1 versus ceftazidime alone) was “much lower than that observed with ceftazidime alone” and the “effectiveness of amoxycillin in protecting animals” value [4] was “markedly more effective”. The synergy with cefotaxime (B. fragilis [5]) was “Effective synergy”, the synergy with cefotaxime [6] was “Effective synergy” and the MIC of cefotaxime ([1]; Example 1 at concentrations as low as 0.25 μg/ml) was “below 1 μg/ml”. The MIC of ceftazidime (B. fragilis [7]; [10]) was “around 4 μg/ml”, the MIC of ceftazidime [8, 10] was “around 2 μg/ml” and the “cefotaxime MIC” value [9] was “below 1 μg/ml”. The serum half life (serum half life) was “advantageously long”, the “protection of infected animals” value ([2]; cefotaxime plus Example 1 compared with cefotaxime alone, K.pneumoniae (520)) was “consistent protection” and the “protection of infected animals” value ([3]; cefotaxime plus Example 1 compared with cefotaxime alone, E. cloacae (4593)) was “consistent protection”.
With `CC(C)(O/N=C(\C(=O)N[C@@H]1C(=O)N2C(C(=O)[O-])=C(C[n+]3ccccc3)CS[C@H]12)c1csc(N)n1)C(=O)O` [ceftazidime, [6R -[6α,7β(Z)]]-1-[[7-[[(2-amino-4-thiazolyl)[(1-carboxy-1-methylethoxy)imino]acetyl]amino]-2-carboxy-8-oxo-5-thia-1-azabicyclo[4.2.0]oct-2-en-3-yl]methyl]pyridinium hydroxide inner salt] the “selection of cells showing high-level resistance to ceftazidime” value (E. cloacae; ceftazidime alone at 0.5 MIC) was “rapidly selected”, the MIC (B. fragilis [7]; Bacteroides fragilis, ceftazidime alone) was about 7 µg/mL and the MIC ([8]; ceftazidime alone) was about 7 µg/mL.
